Data from patent US11117947B2, “Double-acylated GLP-1 derivatives” (Novo Nordisk A/S, priority 2011, dated 2021).
Read-outs that look alike come from different tables or passages of the source. Numbered stars: 1 amine (or outer) side, 2 acyl side, 3 side chain; on linkers, the order of the positions; unused ones are H or OH. Side chains are listed from the residue outwards. Peptide text beside a SMILES is read from it. * marks the point of attachment. Decanoyl(10-(4-HOOC-PhO)) = O=C(O)c1ccc(OCCCCCCCCCC(=O)*)cc1; γGlu = O=C(O)[C@H](CCC(=O)[*:2])N[*:1]; C14 diacid = O=C(O)CCCCCCCCCCCCC(=O)*; AEEA = NCCOCCOCC(=O)O

Target: T1, human GLP-1 receptor (Homo sapiens, UniProt P43220)
T1 construct: expressed in transfected cells; membranes
Experiment: GLP-1 receptor binding: displacement of 125I-GLP-1 (SPA) at low and high albumin
Protocol: The purpose of this experiment is to investigate the binding to the GLP-1 receptor of the GLP-1 derivatives, and how the binding is potentially influenced by the presence of albumin. This is done in an in vitro experiment as described below.
In order to test the binding of the derivatives to albumin, the assay was performed with a low concentration of albumin (0.001%—corresponding to the residual amount thereof in the tracer), as well as with a high concentration of albumin (2.0% added). A shift in the binding affinity, IC50, is an indication that the peptide in question binds to albumin, and thereby a prediction of a potential protracted pharmacokinetic profile of the peptide in question in animal models.
Species (in vitro): Hamster
Biological End Point: Receptor Binding
A stable transfected cell line and a high expressing clone were selected for screening. The cells were grown at 5% CO2 in DMEM, 10% FCS, 1% Pen/Strep (Penicillin/Streptomycin) and 1.0 mg/ml of the selection marker G418.
The cells (approx. 80% confluence) were washed twice in PBS and harvested with Versene (aqueous solution of the tetrasodium salt of ethylenediaminetetraacetic acid), following which they were separated by centrifugation at 1000 rpm for 5 min. The cells/cell pellet must be kept on ice to the extent possible in the subsequent steps. The cell pellet was homogenised with Ultrathurrax for 20-30 seconds in a suitable amount of Buffer 1 (depending on the amount of cells, but e.g. 10 ml). The homogenate was centrifuged at 20000 rpm for 15 minutes. The pellet was resuspended (homogenised) in 10 ml Buffer 2 and re-centrifuged. This step was repeated once more. The resulting pellet was resuspended in Buffer 2, and the protein concentration was determined. The membranes were stored at minus 80° C.
Buffer 1: 20 mM Na-HEPES+10 mM EDTA, pH 7.4
Buffer 2: 20 mM Na-HEPES+0.1 mM EDTA, pH 7.4
Test compounds, membranes, SPA-particles and [^125I]-GLP-1(7-36)NH2 were diluted in assay buffer. 50 ul (micro liter) HSA (“high albumin” experiment containing 2% HSA), or buffer (“low albumin” experiment containing 0.001% HSA), was added to Optiplate, and 25 ul of test compounds were added. 5-10 ug membrane protein/sample was added (50 ul) corresponding to 0.1-0.2 mg protein/ml (to be preferably optimised for each membrane preparation). SPA-particles (Wheatgerm agglutinin SPA beads, Perkin Elmer, #RPNQ0001) were added in an amount of 0.5 mg/well (50 ul). The incubation was started with [^125I]-GLP-1]-(7-36)NH2 (final concentration 0.06 nM corresponding to 49.880 DPM, 25 ul). The plates were sealed with PlateSealer and incubated for 120 minutes at 30° C. while shaking. The plates were centrifuged (1500 rpm, 10 min) and counted in Topcounter.

[1] = high albumin, 2.0% HSA, read-out: IC50/nM (high HSA)
[2] = low albumin, 0.001% HSA, read-out: IC50/nM (low HSA)

T1 sequence (P43220 24-463): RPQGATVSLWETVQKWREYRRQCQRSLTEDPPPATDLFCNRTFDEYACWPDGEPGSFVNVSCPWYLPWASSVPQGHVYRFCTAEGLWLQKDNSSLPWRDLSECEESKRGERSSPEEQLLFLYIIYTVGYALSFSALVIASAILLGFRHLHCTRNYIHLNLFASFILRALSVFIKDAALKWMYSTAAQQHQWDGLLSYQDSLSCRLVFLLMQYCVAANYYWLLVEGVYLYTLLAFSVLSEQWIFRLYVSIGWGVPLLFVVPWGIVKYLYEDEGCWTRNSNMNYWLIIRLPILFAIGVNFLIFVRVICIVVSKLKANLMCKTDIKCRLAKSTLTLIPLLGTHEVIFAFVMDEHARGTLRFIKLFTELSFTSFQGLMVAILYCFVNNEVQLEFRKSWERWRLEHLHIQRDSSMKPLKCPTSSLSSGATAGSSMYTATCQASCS

`CC[C@H](C)[C@H](NC(=O)[C@H](Cc1ccccc1)NC(=O)[C@H](CCCCNC(=O)COCCOCCNC(=O)COCCOCCNC(=O)CC[C@H](NC(=O)CCCCCCCCCOc1ccc(C(=O)O)cc1)C(=O)O)NC(=O)[C@H](CCCNC(=N)N)NC(=O)[C@@H](NC(=O)[C@H](CCCCNC(=O)COCCOCCNC(=O)COCCOCCNC(=O)CC[C@H](NC(=O)CCCCCCCCCOc1ccc(C(=O)O)cc1)C(=O)O)NC(=O)[C@H](CCC(N)=O)NC(=O)[C@H](CCC(=O)O)NC(=O)[C@H](CCC(=O)O)NC(=O)[C@H](CC(C)C)NC(=O)[C@H](Cc1ccc(O)cc1)NC(=O)[C@H](CO)NC(=O)[C@H](CO)NC(=O)[C@@H](NC(=O)[C@H](CC(=O)O)NC(=O)[C@H](CO)NC(=O)[C@@H](NC(=O)[C@H](Cc1ccccc1)NC(=O)[C@@H](NC(=O)CNC(=O)[C@H](CCC(=O)O)NC(=O)[C@H](C)NC(=O)[C@@H](N)Cc1c[nH]cn1)[C@@H](C)O)[C@@H](C)O)C(C)C)C(C)C)C(=O)N[C@@H](C)C(=O)N[C@@H](Cc1c[nH]c2ccccc12)C(=O)N[C@@H](CC(C)C)C(=O)N[C@H](C(=O)N[C@@H](CCCNC(=N)N)C(=O)NCC(=O)N[C@@H](CCCNC(=N)N)C(=O)NCC(=O)O)C(C)C` [Example 28, N^ε24-[2-[2-[2-[[2-[2-[2-[[(4S)-4-carboxy-4-[10-(4-carboxyphenoxy)decanoylamino]butanoyl]amino]ethoxy]ethoxy]acetyl]amino]ethoxy]ethoxy]acetyl], N^ε27-[2-[2-[2-[[2-[2-[2-[[(4S)-4-carboxy-4-[10-(4-carboxyphenoxy)decanoylamino]butanoyl]amino]ethoxy]ethoxy]acetyl]amino]ethoxy]ethoxy]acetyl]-[Glu^22,Lys^24,Val^25,Arg^26,Lys^27,Arg^34]-GLP-1-(7-37)-peptide] (H-HAEGTFTSDVSSYLEEQK([AEEA-AEEA-γGlu-Decanoyl(10-(4-HOOC-PhO))])VRK([AEEA-AEEA-γGlu-Decanoyl(10-(4-HOOC-PhO))])FIAWLVRGRG-OH; N-terminus and C-terminus assumed) was tested, and the IC50 [1] was 29 nM and the IC50 [2] was 0.2 nM.

With `CC[C@H](C)[C@H](NC(=O)[C@H](Cc1ccccc1)NC(=O)[C@H](CCCCNC(=O)COCCOCCNC(=O)COCCOCCNC(=O)CC[C@H](NC(=O)CCCCCCCCCCCCC(=O)O)C(=O)O)NC(=O)[C@H](CCCNC(=N)N)NC(=O)[C@@H](NC(=O)[C@H](CCCCNC(=O)COCCOCCNC(=O)COCCOCCNC(=O)CC[C@H](NC(=O)CCCCCCCCCCCCC(=O)O)C(=O)O)NC(=O)[C@H](CCC(N)=O)NC(=O)[C@H](CCC(=O)O)NC(=O)[C@H](CCC(=O)O)NC(=O)[C@H](CC(C)C)NC(=O)[C@H](Cc1ccc(O)cc1)NC(=O)[C@H](CO)NC(=O)[C@H](CO)NC(=O)[C@@H](NC(=O)[C@H](CC(=O)O)NC(=O)[C@H](CO)NC(=O)[C@@H](NC(=O)[C@H](Cc1ccccc1)NC(=O)[C@@H](NC(=O)CNC(=O)[C@H](CCC(=O)O)NC(=O)[C@H](C)NC(=O)[C@@H](N)Cc1c[nH]cn1)[C@@H](C)O)[C@@H](C)O)C(C)C)C(C)C)C(=O)N[C@@H](C)C(=O)N[C@@H](Cc1c[nH]c2ccccc12)C(=O)N[C@@H](CC(C)C)C(=O)N[C@H](C(=O)NCC(=O)O)C(C)C` [Example 27, N^ε24-[2-[2-[2-[[2-[2-[2-[[(4S)-4-carboxy-4-(13-carboxytridecanoylamino)butanoyl]amino]ethoxy]ethoxy]acetyl]amino]ethoxy]ethoxy]acetyl], N^ε27-[2-[2-[2-[[2-[2-[2-[[(4S)-4-carboxy-4-(13-carboxytridecanoylamino)butanoyl]amino]ethoxy]ethoxy]acetyl]amino]ethoxy]ethoxy]acetyl]-[Glu^22,Lys^24, Val^25, Arg^26, Lys^27,Gly^34]-GLP-1-(7-34)-peptide] (H-HAEGTFTSDVSSYLEEQK([AEEA-AEEA-γGlu-C14 diacid])VRK([AEEA-AEEA-γGlu-C14 diacid])FIAWLVG-OH) the IC50 [1] was > 1000 nM.

In the case of `CC[C@H](C)[C@H](NC(=O)[C@H](Cc1ccccc1)NC(=O)[C@H](CCCCNC(=O)CC[C@H](NC(=O)COCCOCCNC(=O)COCCOCCNC(=O)CCCCCCCCCCCCC(=O)O)C(=O)O)NC(=O)[C@H](CCCNC(=N)N)NC(=O)[C@@H](NC(=O)[C@H](CCCCNC(=O)CC[C@H](NC(=O)COCCOCCNC(=O)COCCOCCNC(=O)CCCCCCCCCCCCC(=O)O)C(=O)O)NC(=O)[C@H](CCC(N)=O)NC(=O)[C@H](CCC(=O)O)NC(=O)[C@H](CCC(=O)O)NC(=O)[C@H](CC(C)C)NC(=O)[C@H](Cc1ccc(O)cc1)NC(=O)[C@H](CO)NC(=O)[C@H](CO)NC(=O)[C@@H](NC(=O)[C@H](CC(=O)O)NC(=O)[C@H](CO)NC(=O)[C@@H](NC(=O)[C@H](Cc1ccccc1)NC(=O)[C@@H](NC(=O)CNC(=O)[C@H](CCC(=O)O)NC(=O)[C@H](C)NC(=O)[C@@H](N)Cc1c[nH]cn1)[C@@H](C)O)[C@@H](C)O)C(C)C)C(C)C)C(=O)N[C@@H](C)C(=O)N[C@@H](Cc1c[nH]c2ccccc12)C(=O)N[C@@H](CC(C)C)C(=O)N[C@H](C(=O)NCC(=O)O)C(C)C` [Example 30, N^ε24-[(4S)-4-carboxy-4-[[2-[2-[2-[[2-[2-[2-(13-carboxytridecanoylamino)ethoxy]ethoxy]acetyl]amino]ethoxy]ethoxy]acetyl]amino]butanoyl], N^ε27-[(4S)-4-carboxy-4-[[2-[2-[2-[[2-[2-[2-(13-carboxytridecanoylamino)ethoxy]ethoxy]acetyl]amino]ethoxy]ethoxy]acetyl]amino]butanoyl]-[Glu^22,Lys^24, Val^25, Arg^26, Lys^27,Gly^34]-GLP-1-(7-34)-peptide] (H-HAEGTFTSDVSSYLEEQK([γGlu-AEEA-AEEA-C14 diacid])VRK([γGlu-AEEA-AEEA-C14 diacid])FIAWLVG-OH), the IC50 [1] is reported as > 1000 nM.

In the case of `CC[C@H](C)[C@H](NC(=O)[C@H](Cc1ccccc1)NC(=O)[C@H](CCCCNC(=O)COCCOCCNC(=O)COCCOCCNC(=O)CC[C@H](NC(=O)CCCCCCCCCOc1ccc(C(=O)O)cc1)C(=O)O)NC(=O)[C@H](CCCNC(=N)N)NC(=O)[C@H](C)NC(=O)[C@H](C)NC(=O)[C@H](CCC(N)=O)NC(=O)[C@H](CCC(=O)O)NC(=O)[C@H](CCC(=O)O)NC(=O)[C@H](CC(C)C)NC(=O)[C@H](Cc1ccc(O)cc1)NC(=O)[C@H](CO)NC(=O)[C@H](CO)NC(=O)[C@@H](NC(=O)[C@H](CC(=O)O)NC(=O)[C@H](CO)NC(=O)[C@@H](NC(=O)[C@H](Cc1ccccc1)NC(=O)[C@@H](NC(=O)CNC(=O)[C@H](CCC(=O)O)NC(=O)[C@H](C)NC(=O)[C@@H](N)Cc1c[nH]cn1)[C@@H](C)O)[C@@H](C)O)C(C)C)C(=O)N[C@@H](C)C(=O)N[C@@H](Cc1c[nH]c2ccccc12)C(=O)N[C@@H](CC(C)C)C(=O)N[C@H](C(=O)N[C@@H](CCCNC(=N)N)C(=O)NCC(=O)N[C@@H](CCCNC(=N)N)C(=O)N[C@@H](CCCCNC(=O)COCCOCCNC(=O)COCCOCCNC(=O)CC[C@H](NC(=O)CCCCCCCCCOc1ccc(C(=O)O)cc1)C(=O)O)C(=O)O)C(C)C` [Example 1, N^ε27-[2-[2-[2-[[2-[2-[2-[[(4S)-4-carboxy-4-[10-(4-carboxyphenoxy)decanoylamino]butanoyl]amino]ethoxy]ethoxy]acetyl]amino]ethoxy]ethoxy]acetyl], N^ε37-[2-[2-[2-[[2-[2-[2-[[(4S)-4-carboxy-4-[10-(4-carboxyphenoxy)decanoylamino]butanoyl]amino]ethoxy]ethoxy]acetyl]amino]ethoxy]ethoxy]acetyl]-[Glu^22,Arg^26,Lys^27,Arg^34,Lys^37]-GLP-1-(7-37)-peptide] (H-HAEGTFTSDVSSYLEEQAARK([AEEA-AEEA-γGlu-Decanoyl(10-(4-HOOC-PhO))])FIAWLVRGRK([AEEA-AEEA-γGlu-Decanoyl(10-(4-HOOC-PhO))])-OH; N-terminus and C-terminus assumed), the IC50 [2] is reported as 0.19 nM.
